In US20230060873A1, “COMPOUNDS AND METHODS FOR FORMING ION CHANNELS IN BIOLOGICAL MEMBRANES” (Washington University, priority 2021, published 2023):

Tested on: B. subtilis cells
Assay: Lactate dehydrogenase release (resofurin fluorescence), lariat ether
Format: cell-based, Bacillus subtilis
Settings: 2 μM, 37° C, lithium lactate/NAD+ solution
Text: A well-established assay was utilized to measure cell lysis by monitoring the release of the enzyme lactate dehydrogenase (LDH), which is ubiquitous in the cytoplasm of all cell types. The tetrameric active form of LDH catalyzes the final step of the glycolysis in B. subtilis and has a molecular weight of approximately 146 kDa in, with a nearly globular shape of an approximated radius of 80 Å (PDB ID: 3PQD). […] LDH couples two redox reactions, the first involving the interconversion of pyruvate (oxidized) and L-lactate (reduced) and the second, the interconversion of NAD^+ (oxidized) and NADH (reduced). The NADH oxidation can be coupled to the diaphorase-catalyzed […] of resazurin to resofurin, which is highly fluorescent. When the concentrations of L-lactate, NAD^+, diaphorase, and resazurin are saturated, the rate of increase in the resofurin fluorescence is limited only by the amount of available LDH in the medium.
To prepare the experiment, a 2-mL liquid culture of B. subtilis cells was grown at 37° C. in media until OD600=0.600, and then collected by centrifugation at 2000 rpm during 3 min. […] Fluorescence intensity was recorded each second using a Horiba Fluoromax 4 spectrometer (excitation wavelength=550 nm; emission wavelength=583 nm). […] To normalize, the fluorescence was divided by the fluorescence level just before timepoint t4. […]

CCCCCCCCCCN1CCOCCOCCN(CCCCCCCCCC)CCOCCOCC1 [LEC10, Didecyl diaza(18-crown-6)]
resofurin fluorescence (LDH release): rapid rise in the fluorescence
